Measured values taken from patent publication US10792340B2, “Antibacterial composition for combating carbapenem-resistant gram-negative bacteria comprising ADK protein as active ingredient” (KONKUK UNIVERSITY GLOCAL INDUSTRY-ACADEMIC COLLABORATION …, priority 2015, dated 2020).

Assays:
Assay type in all cases: cell-based
[1] = system: Acinetobacter baumannii, which is a normal strain; assay: Rezazurin assay, MIC and MBC, normal strain (control)
[2] = system: carbapenem-resistant Acinetobacter baumannii (KUMC.2014.90); assay: Rezazurin assay, MIC and MBC, carbapenem-resistant strain KUMC.2014.90
[3] = system: carbapenem-resistant Acinetobacter baumannii (KUMC.2014.91); assay: Rezazurin assay, MIC and MBC, carbapenem-resistant strain KUMC.2014.91

SMILES: CC1(C)S[C@@H]2[C@H](NC(=O)[C@H](N)c3ccccc3)C(=O)N2[C@H]1C(=O)O [Ampicillin]
- growth inhibition (in words) [1]: inhibited the growth
- MIC50 ([1]; 50% inhibitory concentration, testing range 0.45~500): < 31.3 µg/mL
- MIC80 ([1]; 80% inhibitory concentration, testing range 0.45~500): < 62.5 µg/mL
- MBC ([1]; testing range 0.45~500): < 62.5 µg/mL
- MIC 50% ([2]; Acinetobacter baumannii (KUMC.2014.90), 50% inhibitory concentration, testing range 0.45~500): No effect
- MIC 80% ([2]; Acinetobacter baumannii (KUMC.2014.90), 80% inhibitory concentration, testing range 0.45~500): No effect
- MBC ([2]; Acinetobacter baumannii (KUMC.2014.90), testing range 0.45~500): No effect
- growth inhibition (in words) ([2]; carbapenem-resistant KUMC.2014.90 strain): unable to inhibit the growth
- MIC 50% ([3]; Acinetobacter baumannii (KUMC.2014.91), 50% inhibitory concentration, testing range 0.45~500): No effect
- MIC 80% ([3]; Acinetobacter baumannii (KUMC.2014.91), 80% inhibitory concentration, testing range 0.45~500): No effect
- MBC ([3]; Acinetobacter baumannii (KUMC.2014.91), testing range 0.45~500): No effect
- growth inhibition (in words) ([3]; carbapenem-resistant KUMC.2014.91 strain): unable to inhibit the growth
